We go through 22 compounds from patent publication US10513514B2, “Piperidine compounds as PCSK9 inhibitors” (SHENZHEN SALUBRIS PHARM CO LTD, priority 2017, dated 2019).

Each structure is given as a SMILES string.

For one data set, the target named is PCSK9 (Homo sapiens (Human), UniProt Q8NBP7). As to the kind of experiment: In vitro screening experiment (AlphaLISA anti-PCSK9, PCSK9-Huh7 cells). It counts as cell-based. Particulars: 20 h incubation, AlphaLISA reading. The method, then: 1) Preparation of 1× AlphaLISA test buffer solution:
2.5 ml of 10× AlphaLISA test buffer solution was added to 22.5 ml of Milli-Q water to produce the 1× AlphaLISA test buffer solution.
50 μL of 5 mg/mL Alpha LISA Anti-PCSK9 Acceptor beads and 50 μL of 500 nM Biotinylated Antibody Anti-PCSK9 were added to 9,900 μL of 1× AlphaLISA test buffer solution.
3) Preparation of 2× Streptavidin (SA) Donor beads (80 μg/mL):
200 μL of 5 mg/mL SA-Donor beads was added to 12,300 μL of 1× AlphaLISA test buffer solution.
3) 20 μL/pore mixture of 2.5× AlphaLISA Acceptor beads and Biotinylated Antibody Anti-PCSK9 was added, and incubated at 23° C. for 60 min.
4) 25 μL/pore 2× Streptavidin (SA) Donor beads were added; and incubated for 30 min at 23° C. (kept in dark place).
5) EnVision-Alpha Reader reading:
Date was analyzed with Prismsoftware (nonlinear regression (Sigmoidal dose-response-variable slope) Inhibition ratio %=100*(Sample reading−LC reading)/(HC reading−LC reading) Computational formula: […]

Data set [1] in a line: Research of pharmacokinetic properties in SD rats (bioavailability). The format is in vivo. Particulars: male SD rats; 1 mg/kg intravenous injection, 5 mg/kg by gavage. The method, then:
Research of Pharmacokinetic Properties in SD Rats
This example was intended to evaluate the PK properties of test compound, and calculate the bioavailability in male SD rats. Each test compound used six male SD rats, Six male SD rats were randomly divided into two groups. Three rats were respectively administrated with the dose of 1 mg/kg by intravenous injection; the whole blood was collected at 0.0833, 0.25, 0.5, 1, 2, 4, 6, 8 and 24 h after administration and plasma samples were prepared. The other three rats were respectively administrated with the dose of 5 mg/kg by gavage, the whole blood was collected at 0.25, 0.5, 1, 2, 4, 6, 8 and 24 h after administration, and plasma samples were prepared. the concentration of the test compound in the plasma was tested by LC/MS/MS method, and relevant PK parameters was calculated with Phoenix WinNonlin 6.2.1.
For the bioavailability data, see table 2.

Usually IC50 stands for the concentration that inhibits the measured activity by half. A higher IC50 goes with lower potency. In turn, `Cc1ccnc(N(C(=O)c2ccc(C3=NOC(C)(C)C3=O)cc2)[C@@H]2CCCNC2)c1Cl` [WX015] gave an IC50 on PCSK9 of less than 10 µM.
Same read-out and setting: next, `CC1(C)ON=C(c2ccc(C(=O)N(c3ccccn3)[C@@H]3CCCNC3)cc2)C1=O` [WX006]: less than 10 µM.
For the compound `Cc1cccnc1N(C(=O)c1ccc(C2=NOC(C)(C)C2=O)cc1F)[C@@H]1CCCNC1` [WX027], the 50% inhibitory concentration (IC50) at PCSK9 was less than 10 µM. In addition, the “F in rats (%)” value in data set [1] came to 58.8%.
Taken in the same sequence, the figures for `CO/N=C1/C(c2ccc(C(=O)N(c3ncccc3C)[C@@H]3CCCNC3)cc2)=NOC1(C)C` [WX040] were less than 10 µM and 56.3%.
For `Cc1cc(C2=NOC(C)(C)C2=O)ccc1C(=O)N(c1ncccc1C)[C@@H]1CCCNC1` [WX023], at PCSK9, the IC50 was less than 10 µM.
At PCSK9, `Cc1cc(C(=O)N(c2ncccc2Cl)[C@@H]2CCCNC2)ccc1C1=NOC(C)(C)C1=O` [WX022] had an IC50 of less than 10 µM.
Take `Cc1cnc(N(C(=O)c2ccc(C3=NOC(C)(C)C3=O)cc2)[C@@H]2CCCNC2)c(C)c1` [WX012]: at PCSK9, the IC50 was less than 10 µM.
Still for that read-out and setting: the same measure for `CC1(C)ON=C(c2ccc(C(=O)N(c3ncccc3-c3ccncc3)[C@@H]3CCCNC3)cc2)C1=O` [WX037]: less than 10 µM.
In the case of `Cc1cc(C2=NOC(C)(C)C2=O)ccc1C(=O)N(c1ncccc1Cl)[C@@H]1CCCNC1` [WX021], the IC50 on PCSK9 is less than 10 µM. For the same compound, the “F in rats (%)” value in data set [1] stood at 37.7%.
In turn, `Cc1cc(C(=O)N(c2ncccc2C)[C@@H]2CCCNC2)ccc1C1=NOC(C)(C)C1=O` [WX024] came in with an IC50 against PCSK9 of less than 10 µM.
Same read-out and setting: the same measure for `CC1(C)ON=C(c2ccc(C(=O)N(c3ncccc3-c3ccccc3)[C@@H]3CCCNC3)cc2)C1=O` [WX038]: less than 10 µM; for `COc1cccnc1N(C(=O)c1ccc(C2=NOC(C)(C)C2=O)cc1)[C@@H]1CCCNC1` [WX009]: less than 10 µM; for `Cc1cc(Cl)cnc1N(C(=O)c1ccc(C2=NOC(C)(C)C2=O)cc1)[C@@H]1CCCNC1` [WX011]: less than 10 µM.
Consider `Cc1cc(F)cnc1N(C(=O)c1ccc(C2=NOC(C)(C)C2=O)cc1)[C@@H]1CCCNC1` [WX008], for which the IC50 at PCSK9 is less than 10 µM.
In turn, `COCc1cccnc1N(C(=O)c1ccc(C2=NOC(C)(C)C2=O)cc1)[C@@H]1CCCNC1` [WX041] yielded a half-maximal inhibitory concentration (IC50) against PCSK9 of less than 10 µM.
On to `CC1(C)ON=C(c2ccc(C(=O)N(c3ncccc3F)[C@@H]3CCCNC3)cc2)C1=O` [WX013], for which, at PCSK9, the IC50 was less than 10 µM.
As to `Cc1cccnc1N(C(=O)c1ccc(C2=NOC(C)(C)C2O)cc1)[C@@H]1CCCNC1` (stereo partly drawn) [WX025], the IC50 against PCSK9 is less than 10 µM.
As for `CC1(C)ON=C(c2ccc(C(=O)N(c3ncccc3Cl)[C@@H]3CCCNC3)cc2)C1=O` [WX001], the IC50 against PCSK9 was less than 10 µM. Besides, the “F in rats (%)” value in data set [1] turned out to be 83.9%.
`CC1(C)ON=C(c2ccc(C(=O)N(c3nccc4c3COC4)[C@@H]3CCCNC3)cc2)C1=O` [WX026] showed an IC50 against PCSK9 of less than 10 µM.
`O=C(c1ccc(-n2nnc3cccnc32)cc1)N(c1ncccc1Cl)[C@@H]1CCCNC1` [PF-06446846, reference compound]: in data set [1], the “F in rats (%)” value turned out to be 20%.
Regarding `Cc1cccnc1N(C(=O)c1ccc(C2=NOC(C)(C)C2=O)cc1)[C@@H]1CCCNC1` [WX002], the IC50 at PCSK9 was less than 10 µM. Also, in data set [1], the “F in rats (%)” value came to 68.0%.
Regarding `Cc1cccnc1N(C(=O)c1ccc(C2=NOC(C)(C)/C2=N\O)cc1)[C@@H]1CCCNC1` [WX039], the concentration for half-maximal inhibition (IC50) at PCSK9 was less than 10 µM.
